From US10202353B2, “Therapeutic compounds” (Gilead Sciences, Inc., priority 2014, dated 2019)

Tests used:
HIV-IIIb = test: Test A: Antiviral assay in MT4 Cells; assay type: cell-based, HIV-1; conditions: Human immunodeficiency virus 1, 120 h; 2 μM drug concentration; MT4 cells infected with HIV-IIIb, 5 days; calculated from dose response curve; values normalized to 100% where greater than 100; read-out: % Inhibition at 2 μM (percent inhibition of virus-induced cell killing)
Method: (§1) For the antiviral assay, 40 μL of a concentration required to achieve a final effective 1× test concentration of 3-fold serially diluted compound in culture medium with 10% FBS was added to each well of a 384-well plate (10 concentrations) in quadruplicate. MT4 cells were next mixed with HIV-IIIb at an m.o.i of 0.003 for 1 hour, after which time 35 μL of virus/cell mixture (2000 cells) was immediately added to each well containing 40 μL of diluted compound. The plates were then incubated at 37° C. for 5 days. After 5 days of incubation, 25 μl of 2× concentrated CellTiter-Glo™ Reagent (catalog # G7571, Promega Biosciences, Inc., Madison, Wis.) was added to each well containing MT-4 cells. Cell lysis was carried out by incubating at room temperature for 10 min and then chemiluminescence was read. EC50 values were calculated as the compound concentration that caused a 50% decrease in luminescence signal, a measure of HIV-1 replication. Percent inhibition of virus-induced cell killing calculated from the dose response curve at 2 μM drug concentration is shown in the table below.

[1] = Test B: Cytotoxicity Assay; assay type: cell-based; conditions: human, uninfected MT4 cells, same protocol as Test A
Method: as §1, with “below. Compound cytotoxicity and the corresponding CC50 values was determined using the same protocol as described in the antiviral assay (Test A) except that uninfected cells were used.” for “below.”

Row | Structure (SMILES) | inhibition at 2 µM (HIV-IIIb) [%] | CC50 at 5 days [1] [µM]
1 | COc1ccc(N(C)C(=O)[C@H](Cc2cc(F)cc(F)c2)NC(=O)Cn2nc(C(F)(F)F)c3c2CCC(=O)C3)cc1 [Compound 28, (S)-3-(3,5-difluorophenyl)-N-(4-methoxyphenyl)-N-methyl-2-(2-(5-oxo-3-(trifluoromethyl)-4,5,6,7-tetrahydro-1H-indazol-1-yl)acetamido)propanamide] | 76 | 37.2
2 | COc1ccc(N(C)C(=O)[C@H](Cc2cc(F)cc(F)c2)NC(=O)Cn2nc(C(F)(F)F)c3c2CCC(C)(O)C3)cc1 (stereo partly drawn) [Compound 29, (2S)-3-(3,5-difluorophenyl)-2-(2-(5-hydroxy-5-methyl-3-(trifluoromethyl)-4,5,6,7-tetrahydro-1H-indazol-1-yl)acetamido)-N-(4-methoxyphenyl)-N-methylpropanamide] | 82 | 32.1
3 | CN(C(=O)[C@H](Cc1cc(F)cc(F)c1)NC(=O)Cn1[nH]c(=O)c2c1CCCC2)c1ccc(Cl)cc1 [Compound 30] | 100 | 22.2
4 | COc1ccc(N(C)C(=O)[C@H](Cc2cc(F)cc(F)c2)NC(=O)Cn2ncc3c2CCCC3)cc1 [Compound 31, (S)-3-(3,5-difluorophenyl)-N-(4-methoxyphenyl)-N-methyl-2-(2-(4,5,6,7-tetrahydro-1H-indazol-1-yl)acetamido)propanamide] | 78 | > 53
5 | CN(C(=O)[C@H](Cc1cc(F)cc(F)c1)NC(=O)Cn1c(N)nc2c1c(=O)[nH]c(=O)n2C)c1ccc(Cl)cc1 [Compound 32, (S)-2-(2-(8-amino-3-methyl-2,6-dioxo-2,3-dihydro-1H-purin-7(6)-yl)acetamido)-N-(4-chlorophenyl)-3-(3,5-difluorophenyl)-N-methylpropanamide] | 39 | > 53
6 | CN(C(=O)[C@H](Cc1cc(F)cc(F)c1)NC(=O)Cc1cc(F)cc2c1OCOC2)c1ccc(Cl)cc1 [Compound 33, (S)—N-(4-chlorophenyl)-3-(3,5-difluorophenyl)-2-(2-(6-fluoro-4H-benzo[d][1,3]dioxin-8-yl)acetamido)-N-methylpropanamide] | 34 | 18.4
7 | CN(C(=O)[C@H](Cc1cc(F)cc(F)c1)NC(=O)Cn1nc(C(F)(F)F)c2c1C(F)(F)C1CC21)c1ccc2c(c1)CNC2=O (stereo partly drawn) [Compound 34, (2S)-2-(2-(5,5-difluoro-3-(trifluoromethyl)-3b,4,4a,5-tetrahydro-1H-cyclopropa[3,4]cyclopenta[1,2-c]pyrazol-1-yl)acetamido)-3-(3,5-difluorophenyl)-N-methyl-N-(1-oxoisoindolin-5-yl)propanamide] | 97 | > 53
